Like-named read-outs stand apart in the source and are kept apart here.
How the values were obtained:
[1] = system: Ba/F3 cells containing Ros1 wild-type protein + IL-3; experiment: Ba/F3-Ros1 cell proliferation counter-screen, wild-type protein in the presence of 10 ng/ml murine IL-3; assay type: cell-based; settings: Mus musculus, BaF3, 24 h, read-out: BaF3-ROS1 + IL3 pIC50 (converted)
Protocol: (§1) This assay was carried out with Ba/F3 cells containing three different versions of Ros1: the wild-type protein, protein with a mutation at the gatekeeper residue (L2026M), and protein with a mutation identified in a tumor from a patient that became resistant to crizotinib (Xalkori®) treatment (G2032R). Compounds were solubilized in 100% DMSO (dimethyl sulfoxide) and sprayed into polystyrene, tissue culture treated 384-well plates. A 50 μl volume of cell culture medium (phenol red free RPMI-1640, 10% FBS (fetal bovine serum), 2 mM L-Glutamine) containing 20000 Ba/F3-Ros1 cells was added to each well and the plates were placed in an incubator at 37° C. and 5% CO2. After 24 hours, 10 μl of Alamar Blue solution (0.5 mM K3Fe(CN)6, 0.5 mM K4Fe(CN)6, 0.15 mM Resazurin and 100 mM Phosphate Buffer) was added to the wells, incubated for 4 hours at 37° C. and 5% CO2 before RFU's (Relative Fluorescence Units) (ex. 540 nm., em. 590 nm.) were measured in a fluorescence plate reader.
As a counter-screen the same experiment was performed for the wild-type protein in the presence of 10 ng/ml murine IL-3.

[2] = target: T1, Ba/F3 cells containing Ros1 wild-type protein (Homo sapiens, UniProt P08922, cells depend on it, form not given); experiment: Ba/F3-Ros1 cell proliferation assay, wild-type Ros1; assay type: cell-based, murine; settings: without IL-3
T1 construct: The background only speaks of 'a number of different unrelated proteins' and names SLC34A2-ROS1 for HCC78 cells
T1 sequence (P08922 whole entry, stated change not applied): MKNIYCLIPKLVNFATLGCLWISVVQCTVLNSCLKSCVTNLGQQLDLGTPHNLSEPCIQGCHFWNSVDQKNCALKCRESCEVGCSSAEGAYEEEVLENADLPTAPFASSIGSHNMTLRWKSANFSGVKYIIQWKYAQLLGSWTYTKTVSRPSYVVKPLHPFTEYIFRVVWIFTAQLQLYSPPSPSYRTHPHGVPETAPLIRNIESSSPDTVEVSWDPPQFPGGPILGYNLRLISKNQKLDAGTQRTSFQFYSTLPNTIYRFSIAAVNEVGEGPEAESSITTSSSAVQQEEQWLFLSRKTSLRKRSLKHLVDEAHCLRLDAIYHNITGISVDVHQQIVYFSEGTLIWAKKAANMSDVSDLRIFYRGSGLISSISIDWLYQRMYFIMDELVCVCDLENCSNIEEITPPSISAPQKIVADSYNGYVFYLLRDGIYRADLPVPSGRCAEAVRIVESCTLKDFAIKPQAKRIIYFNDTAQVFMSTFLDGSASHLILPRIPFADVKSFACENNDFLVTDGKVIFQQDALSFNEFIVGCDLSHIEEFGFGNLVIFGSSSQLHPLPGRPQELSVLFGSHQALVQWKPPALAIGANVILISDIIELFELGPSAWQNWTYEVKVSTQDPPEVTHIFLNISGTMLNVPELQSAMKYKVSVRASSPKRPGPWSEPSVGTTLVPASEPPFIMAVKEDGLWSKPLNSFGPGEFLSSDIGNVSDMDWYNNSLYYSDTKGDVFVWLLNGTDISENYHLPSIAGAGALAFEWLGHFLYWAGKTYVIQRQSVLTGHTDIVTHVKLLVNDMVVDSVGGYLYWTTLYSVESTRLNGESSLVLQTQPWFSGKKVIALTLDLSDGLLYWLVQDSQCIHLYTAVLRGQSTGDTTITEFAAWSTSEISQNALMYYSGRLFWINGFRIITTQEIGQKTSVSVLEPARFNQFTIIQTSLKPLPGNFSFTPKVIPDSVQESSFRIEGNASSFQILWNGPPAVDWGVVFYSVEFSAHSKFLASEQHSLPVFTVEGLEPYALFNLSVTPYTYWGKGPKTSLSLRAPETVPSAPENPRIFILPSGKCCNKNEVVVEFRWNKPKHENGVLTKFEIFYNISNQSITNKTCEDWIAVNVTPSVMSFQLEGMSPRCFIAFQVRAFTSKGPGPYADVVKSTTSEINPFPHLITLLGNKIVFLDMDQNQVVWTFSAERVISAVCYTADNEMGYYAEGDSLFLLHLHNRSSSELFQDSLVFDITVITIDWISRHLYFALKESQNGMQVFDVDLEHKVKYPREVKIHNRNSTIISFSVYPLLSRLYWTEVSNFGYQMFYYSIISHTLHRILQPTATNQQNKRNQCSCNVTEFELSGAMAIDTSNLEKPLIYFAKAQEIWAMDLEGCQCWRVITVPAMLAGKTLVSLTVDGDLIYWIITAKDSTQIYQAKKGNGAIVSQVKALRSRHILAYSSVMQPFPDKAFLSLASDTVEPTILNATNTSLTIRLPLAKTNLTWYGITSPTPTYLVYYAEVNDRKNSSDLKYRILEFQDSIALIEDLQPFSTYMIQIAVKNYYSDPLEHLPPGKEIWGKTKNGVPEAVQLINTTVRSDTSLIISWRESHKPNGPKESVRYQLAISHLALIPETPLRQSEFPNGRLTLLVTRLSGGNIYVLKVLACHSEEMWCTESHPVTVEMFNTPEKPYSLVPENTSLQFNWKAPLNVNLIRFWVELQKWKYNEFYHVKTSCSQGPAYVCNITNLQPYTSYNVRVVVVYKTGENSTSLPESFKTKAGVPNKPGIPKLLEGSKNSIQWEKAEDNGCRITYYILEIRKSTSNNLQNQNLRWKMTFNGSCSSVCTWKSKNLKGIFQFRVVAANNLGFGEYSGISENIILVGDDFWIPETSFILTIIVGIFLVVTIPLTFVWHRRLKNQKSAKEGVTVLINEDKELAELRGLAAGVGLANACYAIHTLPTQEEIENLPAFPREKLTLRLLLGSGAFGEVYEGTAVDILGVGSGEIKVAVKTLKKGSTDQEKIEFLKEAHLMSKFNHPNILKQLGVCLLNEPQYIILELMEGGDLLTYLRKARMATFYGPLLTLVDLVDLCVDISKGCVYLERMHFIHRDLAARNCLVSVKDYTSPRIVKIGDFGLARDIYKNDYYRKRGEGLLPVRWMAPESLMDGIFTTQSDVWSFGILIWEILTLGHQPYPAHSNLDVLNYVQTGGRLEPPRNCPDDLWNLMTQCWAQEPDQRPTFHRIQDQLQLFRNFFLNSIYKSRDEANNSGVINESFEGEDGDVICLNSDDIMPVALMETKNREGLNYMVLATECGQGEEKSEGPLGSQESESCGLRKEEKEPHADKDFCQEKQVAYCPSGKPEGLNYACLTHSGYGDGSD
Protocol: (§2) Ba/F3-Ros1 Cell Proliferation Assay
as §1

Ros1 enzyme = target: T2, Ros1 enzyme (Homo sapiens, UniProt P08922); experiment: Ros1 enzymatic assay; assay type: biochemical; settings: Ros1 enzymatic assay; read-out: ROS1 pIC50 (converted)
T2 construct: 0.5 μg/ml Ros1 enzyme
T2 sequence (P08922 28-2347): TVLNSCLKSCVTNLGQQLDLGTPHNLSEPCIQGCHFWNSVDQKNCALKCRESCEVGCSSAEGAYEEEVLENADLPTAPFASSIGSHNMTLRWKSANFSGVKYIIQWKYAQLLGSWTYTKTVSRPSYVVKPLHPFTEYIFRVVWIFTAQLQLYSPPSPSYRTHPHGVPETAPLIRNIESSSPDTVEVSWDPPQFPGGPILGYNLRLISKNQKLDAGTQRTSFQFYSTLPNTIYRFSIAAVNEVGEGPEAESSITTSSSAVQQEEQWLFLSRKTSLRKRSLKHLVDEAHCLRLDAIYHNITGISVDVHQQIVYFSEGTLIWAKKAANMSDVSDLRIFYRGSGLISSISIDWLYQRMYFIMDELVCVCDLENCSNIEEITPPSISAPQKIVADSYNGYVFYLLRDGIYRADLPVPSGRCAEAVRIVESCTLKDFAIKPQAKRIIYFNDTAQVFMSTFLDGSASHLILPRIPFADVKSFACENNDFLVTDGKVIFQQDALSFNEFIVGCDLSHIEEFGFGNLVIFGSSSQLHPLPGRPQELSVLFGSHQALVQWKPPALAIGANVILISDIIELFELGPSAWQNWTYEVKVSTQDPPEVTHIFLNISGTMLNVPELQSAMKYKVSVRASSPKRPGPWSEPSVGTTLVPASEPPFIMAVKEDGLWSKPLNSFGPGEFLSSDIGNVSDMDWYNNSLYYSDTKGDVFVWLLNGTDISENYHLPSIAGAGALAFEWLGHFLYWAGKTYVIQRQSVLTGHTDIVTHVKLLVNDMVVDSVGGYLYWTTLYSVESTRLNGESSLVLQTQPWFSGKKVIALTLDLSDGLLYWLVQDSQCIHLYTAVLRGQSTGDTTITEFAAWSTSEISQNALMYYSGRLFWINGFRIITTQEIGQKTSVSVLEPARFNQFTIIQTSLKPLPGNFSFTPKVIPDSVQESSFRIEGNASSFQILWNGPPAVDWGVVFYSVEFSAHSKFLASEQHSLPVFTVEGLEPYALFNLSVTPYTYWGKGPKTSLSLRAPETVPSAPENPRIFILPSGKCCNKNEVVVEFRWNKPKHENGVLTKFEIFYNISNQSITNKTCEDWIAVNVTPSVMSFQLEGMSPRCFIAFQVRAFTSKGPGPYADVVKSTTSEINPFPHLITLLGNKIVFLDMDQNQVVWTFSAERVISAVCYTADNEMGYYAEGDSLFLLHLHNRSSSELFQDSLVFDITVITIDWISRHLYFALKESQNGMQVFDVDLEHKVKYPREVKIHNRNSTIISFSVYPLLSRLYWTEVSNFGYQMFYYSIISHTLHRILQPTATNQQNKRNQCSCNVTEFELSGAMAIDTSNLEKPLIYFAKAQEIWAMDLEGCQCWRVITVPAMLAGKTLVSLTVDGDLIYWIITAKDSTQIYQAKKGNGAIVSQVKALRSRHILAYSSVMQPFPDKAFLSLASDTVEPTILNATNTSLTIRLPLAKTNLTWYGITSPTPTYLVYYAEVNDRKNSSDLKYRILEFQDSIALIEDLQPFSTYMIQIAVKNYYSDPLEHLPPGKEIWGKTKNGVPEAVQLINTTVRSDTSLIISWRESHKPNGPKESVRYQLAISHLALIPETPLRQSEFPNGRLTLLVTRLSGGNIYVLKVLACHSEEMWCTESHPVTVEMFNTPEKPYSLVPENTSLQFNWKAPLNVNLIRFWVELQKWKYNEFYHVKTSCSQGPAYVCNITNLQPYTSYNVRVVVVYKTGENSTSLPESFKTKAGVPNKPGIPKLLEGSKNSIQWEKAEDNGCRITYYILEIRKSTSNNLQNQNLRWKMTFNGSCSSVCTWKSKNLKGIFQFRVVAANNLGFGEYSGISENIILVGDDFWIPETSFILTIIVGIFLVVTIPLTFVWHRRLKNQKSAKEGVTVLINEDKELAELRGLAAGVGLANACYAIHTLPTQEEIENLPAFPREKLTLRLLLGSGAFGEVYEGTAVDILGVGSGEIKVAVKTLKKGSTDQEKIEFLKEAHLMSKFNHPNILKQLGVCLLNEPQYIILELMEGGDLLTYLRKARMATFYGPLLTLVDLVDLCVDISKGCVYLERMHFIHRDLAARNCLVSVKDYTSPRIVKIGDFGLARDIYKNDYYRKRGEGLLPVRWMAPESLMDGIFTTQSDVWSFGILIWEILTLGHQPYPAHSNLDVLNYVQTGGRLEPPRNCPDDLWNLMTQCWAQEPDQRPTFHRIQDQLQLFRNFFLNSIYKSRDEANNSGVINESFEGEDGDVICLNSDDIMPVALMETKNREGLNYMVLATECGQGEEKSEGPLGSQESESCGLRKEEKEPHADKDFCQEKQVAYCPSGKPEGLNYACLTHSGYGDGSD
Protocol: Compounds were spotted onto white 384-well Proxiplate plus plates (Perkin Elmer) to which 5 μl of enzyme mix (0.5 μg/ml Ros1 enzyme, 50 mM Tris-HCl pH7.5, 1 mM EGTA, 10 mM MgCl2, 0.01% Tween-20) and 5 μl of substrate mix (6 μg/ml IRS-Tide [American Peptide Company], 20 μM ATP, 13.33 μCi/ml ATP (adenosine 5′-triphosphate) P^33, 50 mM Tris-HCl pH7.5, 1 mM EGTA (ethylene glycol-bis(2-aminoethylether)-N,N,N′,N′-tetraacetic acid), 10 mM MgCl2, 0.01% Tween-20) were added. After incubation for 120 minutes at room temperature, 10 μl of stop reaction buffer (5 mM EDTA, 50 μM ATP, 0.1% BSA (bovine serum albumin), 0.1% Triton X-100, 50 mM Tris-HCl pH7.5, 1 mM EGTA, 10 mM MgCl2, 0.01% Tween-20) containing 2 mg/ml streptavidin coupled polystyrene imaging beads (Amersham Biosciences) was added and incubated for 15 minutes at room temperature. Plates were centrifuged for 3 minutes at 1500 rpm and signals detected in a LEADseeker imaging system (GE).

[3] = target: Ba/F3 cells containing Ros1 with a mutation at the gatekeeper residue (L2026M) (Homo sapiens, UniProt P08922, L2026M, cells depend on it, form not given); experiment: Ba/F3-Ros1 cell proliferation assay, L2026M gatekeeper mutant; assay type: cell-based, murine; settings: without IL-3
Chain of Ba/F3 cells containing Ros1 with a mutation at the gatekeeper residue (L2026M) (P08922 whole entry L2026M, form open): as the sequence (P08922 whole entry, stated change not applied) above, with L2026M counted along it
Protocol: as §2, §1

[4] = counter-screen, wild-type, 10 ng/ml murine IL-3

Structure (SMILES) | CC50 [1] [µM] | BaF3-ROS1-IL3 pIC50 [2] | melting point [°C] | IC50 (Ros1 enzyme) [nM] | CC50 [1, 4] [µM] | Ba/F3 Ros1 L2026M (-IL-3) pIC50 [3]
N#Cc1cccc(COc2ccc(-c3c(-c4ccncc4)nn4c3C(=O)NCC4)cc2)c1 [Compound 124] | > 10 | 5.7 | 238 | 2000 |  | 
CC(C)(CO)c1ccc(COc2ccc(-c3c(-c4ccncc4)nn4c3C(=O)NCC4)cc2)cc1 [Compound 125] | > 10 | 6.7 | 280 | 316 |  | 
CC(CO)c1ccc(COc2ccc(-c3c(-c4ccncc4)nn4c3C(=O)NCC4)cc2)cc1 (stereo not drawn) [Compound 127] | > 10 | 6.6 | 259 | 398 |  | 
O=C1NCCn2nc(-c3ccncc3)c(-c3ccc(OCc4ccccc4)cc3)c21 [Compound 130] | > 10 | 5.8 | 260 | 3160 |  | 
COC(=O)c1cccc(COc2ccc(-c3c(-c4ccncc4)nn4c3C(=O)NCC4)cc2)c1 [Compound 131] | > 10 | 6.2 | 222 | 631 |  | 
NCc1cccc(COc2ccc(-c3c(-c4ccncc4)nn4c3C(=O)NCC4)cc2)c1 [Compound 133] |  | 5.6 |  | > 10000 | > 10 | 
CC(C)c1ccc(COc2ccc(-c3c(-c4ccncc4)nn4c3CN(CC(=O)N3CCCC3)CC4)cc2)cc1 [Compound 179] |  | 6.4 |  | 501 | > 10 | 
CC(O)C(=O)N1CCn2nc(-c3ccncc3)c(-c3ccc(OCc4ccc(C(C)C)cc4)cc3)c2C1 (stereo not drawn) [Compound 180] |  | 6.5 |  | 501 | > 10 | 
CNCC(=O)N1CCn2nc(-c3ccncc3)c(-c3ccc(OCc4ccc(C(C)C)cc4)cc3)c2C1 [Compound 182] |  | 5.7 |  | 1260 | 5.01 | 
COc1ccc(COc2ccc(-c3c(-c4ccncc4)nn4c3CNCC4)cc2)cc1 [Compound 188] |  | 5.5 |  | 3980 | > 10 | 
CC1Cn2nc(-c3ccncc3)c(-c3ccc(OCc4ccc(C5CC5)cc4)cc3)c2CN1 (stereo not drawn) [Compound 190] |  | 6.1 |  | 631 | > 10 | 
CC(C)c1ccc(COC2CCN(c3c(-c4ccncc4)nn4c3C(=O)NCC4)CC2)cc1 [Compound 198] | > 10 | 6.6 |  | 251 |  | 
CC(C)c1ccc(COc2ccc(-c3c(-c4ccncc4)nn4c3C(=O)NCC4)c(F)c2)cc1CCO [Compound 204] | > 10 | 7.9 |  | 6.31 |  | 7.8
CC(C)c1ccc(COc2ccc(-c3c(-c4ccncc4)nn4c3C(=O)N(CCO)CC4)cn2)cc1 [Compound 212] | > 10 | 7.3 |  | 39.8 |  | 6.8
CC(C)c1ccc(C(Oc2ccc(-c3c(-c4ccncc4)nn4c3C(=O)NCC4)cc2)C(=O)NCCO)cc1 (stereo not drawn) [Compound 218] | > 10 | 6.3 |  | 200 |  | 
CC(C)c1ccc(COc2ccc(-c3c(-c4ccncn4)nn4c3CN(CCO)CC4)cc2)cc1 [Compound 220] |  | 6.5 |  | 501 | > 10 | 
CC(C)c1ccc(C2CNc3cc(-c4c(-c5ccncc5)nn5c4C(=O)NCC5)cnc3O2)cc1 (stereo not drawn) [Compound 223] | > 10 | 6.5 |  | 398 |  | 
CC(C)c1ccc(C2CNc3cc(-c4c(-c5ccncc5)nn5c4C(=O)NCC5)ccc3O2)cc1 (stereo not drawn) [Compound 224] |  | 6.7 |  | 398 | > 10 | 
CC(C)c1ccc(C2CNc3cc(-c4c(-c5ccncc5)nn5c4C(=O)NCC5)ccc3O2)cc1 (stereo not drawn) [Compound 225] |  | 6.7 |  | 316 |  | 

From patent US10280170B2, “Substituted 4,5,6,7-tetrahydro-pyrazolo[1,5-a]pyrazine derivatives and 5,6,7,8-tetrahydro-4H-pyrazolo[1,5-a][1,4]diazepine derivatives as Ros1 inhibitors” (Janssen Pharmaceutica NV, priority 2014, dated 2019)
